In patent US8362072B2, “BRCA1-based breast or ovarian cancer treatment agents and methods of use” (University of Kansas, priority 2007, dated 2013):

What was measured:
human BRCA1 promoter = assay: BRCA1-luciferase reporter assay (Steady-Glo) in stably transfected MCF7 cells; format: cell-based; details: for EC50 / EC90: MCF7-BRCA1-luciferase cells, dilution series; for BRCA1-luciferase activity (in words): MCF7 pGL4.14-hBRCA1.3 cells
Protocol: Hygromycin selected MCF7 cells were seeded in 384-well tissue culture plates. The first two columns of each plate were empty so as to include established positive and negative controls. Each of the remaining 352 wells contained a compound to be screened. MCF7 cells were incubated with the compounds for 48 hours. Luciferase activity was measured using the Steady Glo Luciferase Assay System (Promega). Briefly, 5×10^6 MCF7 cells were transfected with […] of purified pGL4.14 containing the human BRCA1 promoter (pGL4.14-hBRCA) with Effectene as per manufacturers protocol (Qiagen). Stable transfectants were selected with […] Hygromicin B. 1×10^5 or 2×10^5 stable transfectants were tested for luciferase activity with the Steady-Glo Luciferase Assay System (Promega).
Hygromycin selected MCF-7 cells (e.g., MCF7 clone pGL4.14-hBRCA1.3) stably transfected with the human BRCA1-luciferase reporter construct (e.g., pGL4.14-hBRCA1.3) were seeded in 384-well white tissue culture plates (Becton Dickenson, San Diego, Calif.) at 1×10^4 cells/well. These cells were then stimulated with indicated concentrations of genistein (Sigma-Aldrich, St. Louis, Mo.) for 0, 6, 9, 24 and 48 hours. Luciferase activity was measured using the Steady Glo Luciferase Assay System (Promega). The data shown in FIG. 3A is representative of 3 individual experiments.
Two different chemical libraries were screened for the ability to enhance BRCA1 gene expression. To examine the effects of each compound on BRCA1 expression, the human BRCA1 promoter was cloned and inserted upstream of the firefly luciferase gene in the plasmid pGL4.14 (BRCA1-Luc) (Promega), as described above. The ER positive human breast cancer cell line, MCF7, was transfected and stable transfectants were selected with hygromycin.
Briefly, compounds were plated in a 384 well plate in a total volume of 20 μl. A ten point dilution series was used at concentrations—100 µM, 10 μM, 1 μM, 100 nM, 10 nM, 1 nM, 0.1 nM, 0.01 nM, 0.0001 nM, 0 (DMSO vehicle only). A second dilution series of 100 μM, 32.5 μM, […], 3.6 μM, 1.2 μM, 400 nM, 132.2 nM, 45 nM, 14.8 nM, 5 nM, and 1.65 nM was also used. MCF7-BRCA1-luciferase cells were added to the compounds at a concentration of 1×10^4 cells/well in a volume of 25 μl. The 384 well plates, containing the compounds+cells, were then incubated at 37° C. for 48 hours. After 48 hours, luciferase activity was measured with the Steady-Glo® Luciferase Assay System (Promega, Madison, Wis.).

BRCA1 protein = BRCA1 protein expression in MCF7 cells by Western blot; format: cell-based, human; details: 48 hours, compared to DMSO
Protocol: Compounds 29 and 30 were studied for BRCA1 and actin (e.g., housekeeping gene for normalization) protein expression. Briefly, MCF7 cells (2×10^6) in 2 ml MEM were plated in a 6 well tissue culture plate and were either left nonstimulated or treated with DMSO (vehicle control), […] Genistein, or 3 different concentrations of indicated test compound—3.65 μM, […], 32.5 μM. Following incubation at 37° C. for 48 hours, the media was removed and the cells were washed 1× with 500 μl of ice cold PBS. Another 500 μl of ice cold PBS was then added and the cells were scraped off the well and transferred to a microcentrifuge tube. To ensure all cells were removed from the well, an additional […] of ice cold PBS was added to the well and any remaining cells were combined with the initial cell harvest into the microcentrifuge tube. The cells were then pelleted by centrifugation for 5 min at 3000 rpm, 4° C. The supernate was removed and the pellet was then lysed in 150 μl of ice cold RIPA buffer+1× protease inhibitors, on ice for 30 minutes, vortexing occasionally. The cellular debris was then removed by centrifugation for 20 minutes at 11,000 rpm, 4° C. The remaining supernate, containing the extracted proteins, was then transferred to a microcentrifuge tube and quantified using the Bio-Rad DC assay. 100 μg of protein+1×SDS-PAGE sample buffer was loaded onto an 8% Tris glycine gel. The proteins were separated in a tris glycine running buffer at 125 volts for 90 minutes. The proteins were then transferred out of the gel onto PVDF in an overnight transfer with 20% methanol at 35 volts, 4° C. The PVDF membrane was then blocked with 5% milk/PBST (0.1%) for 1 hour at room temperature (RT). BRCA1 protein was detected using anti-BRCA1 (Ab-1, EMD Biosciences) at a 1:250 dilution in 3% milk/PBST, overnight at 4° C. […] To monitor equal protein loading, actin was detected using anti-actin at a 1:200,000 dilution in 5% milk/PBST for 1 hr at RT. […] Chemiluminescence was detected using the SuperSignal West Femto kit made by Pierce Biotechnology and the UVP imaging center. […]

MCF7 cells = assay: Cell viability of MCF7 cells (CellTiter 96 AQueous One); format: cell-based, human; details: 48 hours
Protocol: Additionally, the compounds were tested for cell viability. Compounds were plated at 2× in 50 μl MEM in triplicate in a clear 96 well tissue culture plate. A ten point dilution series was used at concentrations—100 μM, 10 μM, 1 μM, 100 nM, […], 1 nM, 0.1 nM, 0.01 nM, 0.0001 nM, 0 (DMSO vehicle only). MCF7 cells (5×10^3) were added in a volume of 50 μl MEM to the appropriate wells, diluting the compounds to 1×. Cells were incubated at 37° C. for 48 hours. 20 μl of CellTiter 96® AQueous One Solution Reagent (Promega) was added to each well and incubated for 3 hours at 37° C. Absorbance was measured at 490 nm using the Perkin Elmer Victor 3V plate reader. Absorbance signals were normalized to DMSO vehicle control and were expressed as percent viable.

EC50 (human BRCA1 promoter; Homo sapiens, MCF7, 48 h) | EC90 (human BRCA1 promoter; Homo sapiens, 48 hours) | SMILES | other results
9.43 µM | 46.8 µM | COc1ccc2c(c1OC)C(=O)N(c1ccc(C)cc1)C2 [Cmpd 32] | –
0.948 µM | 2.85 µM | Cc1ccc(C(=O)Nc2ccc3c(c2)oc2ccccc23)o1 [Cmpd 17] | –
20.6 µM | 79.4 µM | CC(=O)c1cc(C#N)c(SC/C=C/c2ccccc2)nc1C [Cmpd 19] | –
14.5 µM | 25 µM | O=c1c(-c2ccc(O)cc2)coc2cc(O)cc(O)c12 [Genistein, genistein, reference compound] | BRCA1 protein expression (BRCA1 protein): increase in BRCA1 protein; BRCA1-luciferase activity (in words) (human BRCA1 promoter; 48 hours): dose-dependent increase in BRCA1-luciferase activity; BRCA1-luciferase activity (in words) (human BRCA1 promoter; 48 hours, listed as genistein): increase in BRCA1-luciferase activity
106 µM | 998 µM | CC(C)c1ccc(OCC(=O)O/N=C(\N)c2ccncc2)c(Br)c1 [Cmpd 14] | BRCA1-luciferase activity (in words) (human BRCA1 promoter; 48 hours): comparatively superior to Compound 13
70.5 µM | 967 µM | CC(C)(C)C(=O)Nc1cccc(C(=O)Nc2ccc(Cl)cc2)c1 [Cmpd 2] | toxicity (cell viability) compared to genistein (MCF7 cells): less toxic compared to genistein
11.2 µM | 17.2 µM | Cc1[nH]n(-c2ccc([N+](=O)[O-])cc2)c(=O)c1/C=N/C1CCCC1 [Cmpd 18] | –
– | 366 µM | Cc1ccc(-c2nc3ccc(NCc4cccs4)cc3o2)cc1 [Cmpd 26] | EC50 (human BRCA1 promoter; 48 hours): 28.7 µM
11 µM | 20.7 µM | COc1ccc(/C(O)=C\C=N\c2ccccc2OC)cc1 [Cmpd 22] | –
1.64 µM | 24.2 µM | Fc1ccc(-c2nnc(-c3ccc(F)cc3)o2)cc1 [Cmpd 6] | –
0.218 µM | 2.56 µM | Cc1cccc(-c2noc(-c3cccs3)n2)c1 [Cmpd 10] | –
8.73 µM | 47.3 µM | Cc1cc(C(=O)Nc2ccc(N3CCOCC3)cc2)ccc1[N+](=O)[O-] [Cmpd 3] | BRCA1-luciferase activity (in words) (human BRCA1 promoter; 48 hours): comparatively superior
6.82 µM | 54.9 µM | Oc1c(F)cccc1/C=N/c1ccc2oc(-c3ccccc3)nc2c1 [Cmpd 1] | toxicity (cell viability) compared to genistein (MCF7 cells): less toxic compared to genistein
0.729 µM | 1.77 µM | COc1ccc(-c2nc3cc(C)ccc3o2)cc1N [Cmpd 4] | –
17.4 µM | 49.4 µM | Fc1cccc(/C=N/c2ccc3[nH]c(-c4ccco4)nc3c2)c1 [JN1-78] | –
34.9 µM | 196 µM | Clc1cccc(/C=N/c2ccc3[nH]c(-c4ccco4)nc3c2)c1 [JN1-77] | –
10.7 µM | ~11.8 µM | COc1ccc(/C=N/c2ccc3[nH]c(-c4ccccc4)nc3c2)cc1OC [Cmpd 23] | –

The next lines start with the compound.

SMILES | EC50 (human BRCA1 promoter; Homo sapiens, MCF7, 48 h) | EC90 (human BRCA1 promoter; Homo sapiens, 48 hours) | other results
Cn1nnc(-c2ccc(OCc3ccccc3F)cc2)n1 [Cmpd 12] | 1.67 µM | 15.8 µM | BRCA1-luciferase activity (in words) (human BRCA1 promoter; 48 hours): comparatively superior to Compound 13
Cc1ccc(/C(O)=C/C=N/c2cccc(Cl)c2C)cc1 [Cmpd 21] | 11.2 µM | ~9.72 µM | –
N/C(=N\OC(=O)c1ccoc1)c1ccc(Br)cc1 [Cmpd 20] | 50.3 µM | 170 µM | –
Fc1cccc(CNc2ccc3[nH]c(-c4ccco4)nc3c2)c1 [JN1-76] | 2.42 µM | 5.94 µM | BRCA1-luciferase activity (in words) (human BRCA1 promoter; 48 hours): rank with the other top compounds and genistein
Fc1ccc(Nc2nc(-c3ccccc3)cs2)cc1 [Cmpd 5] | 11.6 µM | ~13.8 µM | –
O=C(Nc1ccc(Cl)c(Cl)c1)c1ccccc1Br [Cmpd 9] | 1.3 µM | 10.1 µM | BRCA1-luciferase activity (in words) (human BRCA1 promoter; 48 hours): comparatively superior, but similar to Compound 8 and 10
N/C(=N\OC(=O)Cc1cccs1)c1ccc(Cl)cc1 [Cmpd 8] | 2150 µM | – | –
O=C(CSc1nc(=O)cc(O)[nH]1)c1ccccc1 [Cmpd 7] | 2060 µM | ~63700 µM | –
Clc1cccc(CNc2ccc3[nH]c(-c4ccco4)nc3c2)c1 [JN1-82] | 2.05 µM | 4.94 µM | BRCA1-luciferase activity (in words) (human BRCA1 promoter; 48 hours): rank with the other top compounds and genistein
O/N=C(\CSc1nc2ccccc2[nH]1)c1ccccc1 [Cmpd 11] | 6.77 µM | 80.5 µM | BRCA1-luciferase activity (in words) (human BRCA1 promoter; 48 hours): comparatively superior to Compound 13
Cc1ccc(-c2nc3ccc(NCc4cccs4)cc3o2)cc1 [Cmpd 25] | – | – | EC50 (human BRCA1 promoter; 48 hours): 8.63 µM
Cc1cccc(/C=N/c2ccc3[nH]c(-c4ccco4)nc3c2)c1 [JN1-72] | 25.8 µM | 110 µM | –
c1ccc(CNc2ccc3[nH]c(-c4ccco4)nc3c2)cc1 [JN1-68] | 3.53 µM | 8.84 µM | BRCA1-luciferase activity (in words) (human BRCA1 promoter; 48 hours): rank with the other top compounds and genistein
O=c1c(-c2ccc(O)cc2)coc2cc(O)ccc12 [Daidzein, reference compound] | – | – | BRCA1-luciferase activity (in words) (human BRCA1 promoter; 48 hours): dose-dependent increase in BRCA1-luciferase activity
NNC(=O)c1nc(-c2ccccc2)cc(-c2ccccc2)n1 [Cmpd 27] | – | 0.00186 µM | –
COc1ccccc1OCC(=O)O/N=C(\N)c1ccccn1 [Cmpd 13] | 69.6 µM | 377 µM | –
CC(=O)c1ccc(/N=C/c2ccc(OCc3ccc(F)cc3)cc2)cc1 [Cmpd 31] | 4.88 µM | 71.5 µM | –
O=C(Nc1ccc(Br)cn1)c1ccc(Oc2ccccc2)cc1 [Cmpd 28] | 6.96 µM | – | –
O=C(COc1cccc2cccnc12)N1CCc2ccccc21 [Cmpd 16] | – | ~38.8 µM | –
